Values quoted from earlier work, collected in patent publication US20170306503A1, “SYNTHETIC ACID COMPOSITIONS ALTERNATIVES TO CONVENTIONAL ACIDS IN THE OIL AND GAS INDUSTRY” (FLUID ENERGY GROUP LTD, priority 2014, published 2017).

Conditions: gas exposure, death in 2-3 minutes

Cl [Hydrogen chloride gas, Hydrogen chloride]
level at which death can occur: 1300-2000 PPM
